Measurements published in patent US6506928B1, “Dendrimeric fullerene derivatives, process for their preparation, and use as neuroprotectants” (Siemens Axiva GmbH & Co. KG, priority 1998, dated 2003).
≈ marks a conversion by molar mass, not a printed value.

Columns and labels:
physchem = assay: physchem
Protocol: The dendrimer fullerene 1 of second generation [18-cascade:methano-C60-fullerene[2]:(2-aza-7-oxa-3,8-dioxooctylidyne):(2-aza-3-oxopentylidyne):propanoic acid] (cf. preparation example 1) is prepared (Scheme 3) analogously to the synthesis of the derivative of first generation 8 shown in Scheme 2. As in the first case, the tert-butyl-protected γ-aminotriscarboxylic acid 3 is reacted with the appropriate nitrotriscarboxylic acid 9, whose tert-butyl ester is the synthesis precursor of 3 (15, 16), using DCC in the presence of 1HO-BT and subsequent reduction with hydrogen to the dendron 10 of second generation [9-cascade:aminomethane[3]:(2-aza-3-oxopentylidyne):tert-butyl propanoate]. […] The analogous removal of the protective groups leads to the dendrimer fullerene 1 of the second generation.

apoptotic neural death = conditions: induced by serum withdrawal or exposure of Aβ1-42 protein; literature /12/; cited from earlier work

| Compound | solubility (in words) (physchem) | solubility (physchem; 25 °C, pH 7, aqueous buffer) [mg/mL] | solubility (physchem; pH 10, aqueous buffer) [mg/mL] | reduction of apoptotic neural death (apoptotic neural death) |
| --- | --- | --- | --- | --- |
| O=CCCC(CCC(=O)O)(CCC(=O)O)NC(=O)CCC(CCC(=O)NC(CCC(=O)O)(CCC(=O)O)CCC(=O)O)(CCC(=O)NC(CCC(=O)O)(CCC(=O)O)CCC(=O)O)NC(=O)CCCOC(=O)C1(C(=O)OCCCC(=O)NC(CCC(=O)NC(CCC(=O)O)(CCC(=O)O)CCC(=O)O)(CCC(=O)NC(CCC(=O)O)(CCC(=O)O)CCC(=O)O)CCC(=O)NC(CCC(=O)O)(CCC(=O)O)CCC(=O)O)C2c3cc4c5c6c(cc7ccc8cc9c%10c%11c(cc(c%12c3c5c(c%12%11)c3c6c7c8c%103)C21)C9)C4 (stereo not shown) [compound 1, 18-cascade:methano-C60-fullerene[2]:(2-aza-7-oxa-3,8-dioxooctylidyne):(2-aza-3-oxopentylidyne):propanoic acid] | very readily soluble | ~34 (≈ 13.7 mM) | ~250 (≈ 100 mM) |  |
| C60[C(COOH)2]3 [C3-symmetrical derivative] |  |  |  | reduced apoptotic neural death |
